The values that follow come from the METLIN SMRT retention time set (Domingo-Almenara et al. 2019).

The nature of the data set: gradient 5% acetonitrile 3 min, to 50% in 2 min, to 85% in 15 min, held 3 min, 100 µL/min. The following applies: column: Zorbax Extend-C18 2.1 x 50 mm; eluents: water / acetonitrile, 0.1% formic acid. In a few lines: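 Values are retention times taken from adduct peaks that software picked and an analyst inspected. The pure standards were run as mixtures of ~100 molecules on HPLC linked to a quadrupole time-of-flight mass spectrometer, in positive and negative ionization mode. A Zorbax Extend-C18 column (2.1 × 50 mm, 1.8 μm) was used at 100 μL/min with water and acetonitrile, each including 0.1% formic acid.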
Consider `O=C(c1ccc2c(c1)OCO2)N1CCCC1c1nc(-c2cccc(C(F)(F)F)c2)no1` (centres undefined), for which the RP-LC retention time was 1080 s.

Turning to `CCn1c(=O)n(-c2ccc(F)cc2)c2nc(-c3ccc(F)cc3F)nc(C(N)=O)c21`, the RP-LC retention time amounted to 1000 s. `CC(C)c1ccc(NC(=O)C2CCN(S(=O)(=O)c3ccc4c(c3)CCCC(=O)N4)CC2)cc1` registered an RP-LC retention time of 883 s. With `O=C(Cn1ccn2nc(-c3ccc(F)cc3)c(CO)c2c1=O)Nc1cccc(Br)c1`, the RP-LC retention time was 894 s.

As for `Cc1nc(-c2ccccc2OC2CN(S(=O)(=O)c3cccc4nsnc34)C2)no1`, the RP-LC retention time turned out to be 883 s. Regarding `c1ccc(-c2n[nH]c(-c3ccccn3)n2)nc1`, the RP-LC retention time amounted to 645 s. `COCCN1C(=O)c2cccn2CC1CNC(=O)c1cnc(C)cn1` (centres undefined) showed an RP-LC retention time of 610 s. The molecule `Cc1cc(OCC(O)Cn2c(C3CC3)nc3ccccc32)cc(C)c1Cl` (centres undefined) gave an RP-LC retention time of 795 s. Under `COc1ccc(C2C(C(=O)Nc3cccc(C)n3)c3ccccc3C(=O)N2C)cc1` (centres undefined) stands 791 s; under `O=C1NC2CCCCC2NC1CC(=O)N1CCN(C(c2ccccc2)c2ccccc2)CC1` (centres undefined), 586 s. Consider `COc1cccc(Cn2c(=O)c3ccnn3c3ccc(C(=O)O)cc32)c1`, for which the RP-LC retention time stood at 785 s. As to `O=C(NCc1ccc(F)cc1)C1CC(=O)N(c2n[nH]c3cccc(F)c23)C1` (centres undefined), the RP-LC retention time worked out at 707 s. Molecule `O=C(Cc1ccccc1)NC1CCN(c2cc(-c3ccc(Cl)cc3)[nH]n2)C1` (centres undefined) registered an RP-LC retention time of 764 s. On to `CCN1CCN(c2ccc(N3CCCC(C(=O)N4CCN(c5cccc(Cl)c5)CC4)C3)nn2)CC1` (centres undefined), for which the RP-LC retention time amounted to 610 s. The molecule `CC1CCC(NC(=O)c2cc3sccc3n2Cc2ccc(F)cc2)CC1` (centres undefined) showed an RP-LC retention time of 1260 s. With `CCC(CC)C(=O)N1CCc2c(c(C(=O)N3CCCC(C(=O)Nc4ccccc4C)C3)nn2C)C1` (centres undefined), the RP-LC retention time was determined as 817 s. `CCc1noc(-c2nnn3c2COC(c2ccc(F)cc2)C3)n1` (centres undefined): the RP-LC retention time amounted to 960 s. Under `CCN(CC)c1ccc(NC(=O)Cn2cc3c(n2)CCCCC3)c(C)c1` stands 674 s. In the case of `Cc1cc(C)cc(-c2nnc(Cc3nc(-c4cccc(Cl)c4)no3)o2)c1`, the RP-LC retention time came out at 1230 s.

For the molecule `CCOc1ccccc1C(=O)NCC1CCN(C(=O)c2ccccc2F)CC1`, the RP-LC retention time came out at 756 s. As to `Cc1ccc(-c2ncc3c(=O)n(Cc4ccc(Cl)cc4)c(=O)n(C)c3n2)cc1`, the RP-LC retention time was determined as 1360 s. The result for `O=C(NC1CCCCCC1)c1nnn(Cc2ccccc2)c1-n1cccc1` reads 1120 s; that for `O=C(C1CCN(c2nnc(-n3cccc3)s2)CC1)N1CCN(c2ncccn2)CC1`, 738 s; that for `CCCS(=O)(=O)N1CCC2(CC1)CN(Cc1ccc(OC)cc1)C2=O`, 787 s. Take `O=C(NC1(c2nc(-c3cccnc3)no2)CCCCC1)c1ccc(Br)cc1`: the RP-LC retention time is 1010 s.

For the molecule `COc1ccc(Cl)cc1NC(=O)CSc1nc(-c2ccccc2C)ns1`, the RP-LC retention time was 1230 s. `Cn1c(=O)c(N2CCN(C(=O)c3ccccc3F)CC2)nc2ccccc21` showed an RP-LC retention time of 864 s. Take `Fc1cnccc1CN1CC2(CCCCC2)CC1COc1ccncc1` (centres undefined): the RP-LC retention time was determined as 747 s. `CN(CC1CCOC1)C(=O)Nc1cccc(Cl)c1` (centres undefined) gave an RP-LC retention time of 738 s. `COCCN(CCOC)C(=O)Cc1csc(NC(=O)Nc2ccc(Cl)cc2)n1` returned an RP-LC retention time of 733 s. Molecule `O=C(C1CC1)N1CCc2sc(S(=O)(=O)Nc3cc(Cl)ccc3F)cc2C1` gave an RP-LC retention time of 868 s. Under `CCOc1ccccc1N1CCN(S(=O)(=O)c2nn(C)cc2C(=O)NC2CCCCC2)CC1` stands 1110 s; under `CCC(C)NC(=O)C1CCCN(c2nnc(C)c3c(C)n(-c4ccc(Cl)cc4)nc23)C1` (centres undefined), 746 s. `Cc1ccc2c(Nc3ccc(F)cc3C)c(-c3nc(C)no3)cnc2n1` came in with an RP-LC retention time of 756 s. Consider `Cc1cc(C)cc(S(=O)(=O)Nc2ccc3c(c2)CCC(=O)N3CC(C)C)c1`, for which the RP-LC retention time was 928 s. `COc1ccccc1Nc1c(-c2ccc(N3CCOCC3)cc2)nc2cnccn12` came in with an RP-LC retention time of 806 s. For the molecule `COCCNC(=O)c1ccc2nc(CCc3ccc(NC(C)=O)cc3)[nH]c2c1`, the RP-LC retention time is 573 s. `CCn1ccc2c(cc(C(=O)Nc3ccc(Br)cc3C)n2C)c1=O`: the RP-LC retention time amounted to 832 s. Regarding `COc1ccc(-c2nc3cnccn3c2Nc2ccc(C(=O)NCCN(C)C)cc2)cc1OC`, the RP-LC retention time turned out to be 576 s. On to `CCOc1ccc(-c2noc(CS(=O)(=O)c3cc(C)c(C)cc3C)n2)cc1`, for which the RP-LC retention time was determined as 1110 s. Under `Cn1c(=O)sc2cc(S(=O)(=O)N3CCC(C(=O)NCc4ccccn4)CC3)ccc21` stands 611 s. `O=C(Nc1ncc(Cc2cccc3ccccc23)s1)C1CC1` displayed an RP-LC retention time of 878 s. As to `O=C(NCc1ccccc1F)C1CCCN(c2nn3c(=O)c4c(nc3s2)CCCC4)C1` (centres undefined), the RP-LC retention time stood at 762 s. Take `CCn1nccc1-c1cccc(-c2noc(-c3cc4ccccc4oc3=O)n2)c1`: the RP-LC retention time turned out to be 1060 s. Regarding `CNC(=O)[C@@H]1C[C@H](Oc2cccnc2)CN1C(=O)C1CC=CC1`, the RP-LC retention time turned out to be 554 s. As for `CCN1C(=O)COc2ccc(-c3csc(NC(=O)C4CCCO4)n3)cc21` (centres undefined), the RP-LC retention time amounted to 838 s.

Molecule `Cc1cc(S(=O)(=O)N2CC(c3nc(-c4ccccc4)nn3C)C2)ccc1F` came in with an RP-LC retention time of 602 s. `Cc1ccc(NC(=O)C2CCN(S(=O)(=O)c3cc(C(=O)N4CCCC4)n(C)c3)CC2)nc1` came in with an RP-LC retention time of 647 s.

`O=C(C1CC(=O)N(c2n[nH]c3cccc(F)c23)C1)N1CCN(c2ccc(F)cc2)CC1` (centres undefined) came in with an RP-LC retention time of 740 s. Molecule `O=C(Nc1cccc(Cl)c1)N1CCc2nc(-c3ccc(Cl)cc3)ncc2C1` came in with an RP-LC retention time of 1150 s. With `CCCC(=O)Nc1ccc2c(c1)C(=O)CC(c1ccc3c(c1)OCO3)O2` (centres undefined), the RP-LC retention time was found to be 808 s.

Consider `O=C(Nc1ccc2c(c1)CN(C(=O)c1ccco1)CC2)c1cnccn1`, for which the RP-LC retention time stood at 662 s.

In turn, `COc1ccc(NC(=O)N2CCC3(C2)C(=O)Nc2ccc(OC)cc23)c(OC)c1` (centres undefined) displayed an RP-LC retention time of 715 s. `CCCNC(=O)c1c(OCC2CC2)cc(=O)n2c1CCCCC2` returned an RP-LC retention time of 683 s.

In turn, `COc1ccc(C(=O)Nc2nc(-c3ccc4c(c3)NC(=O)C(C)O4)c(C)s2)cc1` (centres undefined) displayed an RP-LC retention time of 924 s. The result for `C/C=C1\C2C=C(C)C[C@]1(N)c1ccc(=O)[nH]c1C2` reads 578 s; that for `Fc1cccc(Cn2cc(-c3noc(C4CCCC4)n3)nn2)c1`, 1010 s.

On to `COC(=O)c1ncn2c1C(=O)N(c1ccccc1C)C(C)(C(=O)NCc1ccc(C)cc1)C2` (centres undefined), for which the RP-LC retention time stood at 726 s. `Cc1ccc(-c2cn3c(n2)N(C(=O)c2cnccn2)CCC3)cc1`: the RP-LC retention time was found to be 642 s. In turn, `CCc1ccc(-c2noc(Cn3c(=O)n(-c4cccc(OC)c4)c(=O)c4sccc43)n2)cc1` yielded an RP-LC retention time of 1060 s.

Molecule `COc1ccc(S(=O)(=O)N2CCC(c3noc(-c4cccnc4)n3)C2)cc1` (centres undefined) registered an RP-LC retention time of 793 s. `COc1cc(NC(=O)CN2C(=O)C(O)(c3cccc(F)c3)c3ccccc32)cc(OC)c1` (centres undefined): the RP-LC retention time was 894 s. In turn, `O=S(=O)(c1ccc2nc(N3CCN(c4ccc(F)cc4)CC3)ccc2c1)N1CCCC1` registered an RP-LC retention time of 951 s.

In the case of `COC(=O)c1c(N)n(CCc2ccccc2)c2nc3ccccc3nc12`, the RP-LC retention time worked out at 711 s.

The molecule `CCc1nc(-c2csc(S(=O)(=O)N3CCCC(C(=O)NC4CCCC4)C3)c2)no1` (centres undefined) displayed an RP-LC retention time of 937 s. On to `COc1ccc(-c2cc(N3CCN(C(=O)COc4ccc(C)cc4OC)CC3)ncn2)cc1`, for which the RP-LC retention time is 608 s.

`O=C(CN1CCN(c2ccccc2F)C1=O)Nc1ccc(OC(F)(F)F)cc1` came in with an RP-LC retention time of 855 s.

Regarding `Cc1cc(C(=O)NCc2ccc(C)o2)c2c(C)nn(-c3ccccc3)c2n1`, the RP-LC retention time was determined as 964 s. `O=C(COc1ccc(F)cc1)NCC1CCC(c2nc3ccccc3[nH]2)CC1` (centres undefined): the RP-LC retention time was determined as 578 s. `CCCC(=O)N(C)CC1CCOCC1` gave an RP-LC retention time of 630 s. In turn, `Cc1[nH]nc(-c2c(C)sc(C)c2S(=O)(=O)NC2CCCc3ccccc32)c1C` (centres undefined) registered an RP-LC retention time of 1130 s.

Consider `CCn1c(C)c(-c2nc(C3CC3)no2)c(S(=O)(=O)NCC(C)C)c1C`, for which the RP-LC retention time was 930 s. The result for `O=c1c(NC2CCCCC2)nc2ccncc2n1Cc1ccccc1` reads 745 s; that for `COc1ccc(S(=O)(=O)Cc2nc(-c3cccc(Cl)c3)no2)cc1`, 1020 s; that for `C=CCNC(=O)c1nnn(Cc2ccc(C)cc2)c1-n1cccc1`, 966 s. The molecule `CN(C)C(=O)c1n[nH]c2c1CN(C(=O)c1ccc(F)c(F)c1)CC2` returned an RP-LC retention time of 634 s. `Cc1ccc(S(=O)(=O)NCCn2ncccc2=O)s1` displayed an RP-LC retention time of 637 s. `CCn1nc(C)c(CCNC(=O)Nc2ccccc2C(=O)OC)c1C` came in with an RP-LC retention time of 646 s. For `Cn1cc(S(=O)(=O)N2CCCCC2)cc1C(=O)Nc1cccc(F)c1`, the RP-LC retention time was 1020 s.
